Experimental data as given in publication PMC6566410, “Novel Diamide-Based Benzenesulfonamides as Selective Carbonic Anhydrase IX Inhibitors Endowed with Antitumor Activity: Synthesis, Biological Evaluation and In Silico Insights” (International Journal of Molecular Sciences, 2019).

Columns and labels:
[1] = test system: renal cancer UO-31 cell line; test: MTT anti-proliferative assay; type: cell-based; details: Homo sapiens, mean ± S.D. of three separate experiments
Protocol: Staurosporine was adopted in the experiment as a reference anticancer drug.
Renal cancer UO-31 cell line was obtained from American Type Culture Collection (ATCC). UO-31 cells were seeded into 96-well plates at 1.8 x 10^4/well. Cells were grown in DMEM, and supplemented with 10% heat-inactivated fetal bovine serum, 1% L-glutamine (2.5 mM), HEPES buffer (10 mM), 50 μg/mL gentamycin.

UO-31 cells [2] = test: cell cycle analysis, DNA flow cytometry; type: cell-based, human; details: UO-31, at IC50 concentration, 24 h
Protocol: The effect of diamide-based benzenesulfonamides 5a and 5h on cell cycle progression was examined in renal UO-31 cancer cells, through a DNA flow cytometric assay (Figure 3).
Then, the treated cells were collected by centrifugation, fixed in ice-cold 70% (v/v) ethanol, washed with PBS, re-suspended with RNase (100 μg/mL), stained with PI (40 μg/mL), and analyzed by flow cytometry using FACS Calibur (Becton Dickinson, BD, USA). The cell cycle distributions were calculated utilizing CellQuest software 5.1 (Becton Dickinson).

UO-31 = test: NCI one-dose SRB assay; type: cell-based; details: Homo sapiens; for activity at 10 µM: UO-31 (Renal Cancer), 1.00E-5 Molar, one dose, read-out: Growth Percent
Protocol: (§1) First, all diamide-based benzenesulfonamides herein reported 5a–h were screened for their antitumor activity at one dose (10^−5 M) assay against a panel of sixty cancer cell lines through the National Cancer Institute (NCI) Developmental Therapeutic Program (www.dtp.nci.nih.gov), according to US-NCI protocol. The cell growth and cell viability were evaluated using the sulforhodamine B (SRB) colorimetric assay.
The obtained data were reported as mean-graph of the percentage growth of the different treated tumour cells (Supplementary Materials). Exploration of results for this assay confirmed that the examined diamide-based benzenesulfonamides 5a–h had non-significant activity towards most NCI cancer cell lines.
(§2) This assay was carried out according to the protocol of the Drug Evaluation Branch, NCI, Bethesda. The cell growth and cell viability were evaluated using the sulforhodamine B (SRB) colorimetric assay, as reported earlier.

UO-31 cells [3] = test: Annexin V-FITC/PI apoptosis assay; type: cell-based, human; details: for late apoptotic cells (UR) / early apoptotic cells (LR): UO-31, annexin V-FITC/PI; for late apoptotic cells (UR): control 0.29%; for early apoptotic cells (LR): control 0.85%
Protocol: To explore whether the anti-proliferative activity of diamide-based sulfonamides 5a and 5h is consistent with the induction of apoptosis within the UO-31 cancer cells, Annexin V-FITC/propidium iodide (AV/PI) dual staining assay was performed by flow cytometry (Figure 4).
Assay of the phosphatidylserine externalization was carried out using Annexin V-FITC/PI apoptosis detection kit (BD Biosciences, San Jose, CA, USA) following the manufacturer’s instructions, as reported previously.

[4] = test system: panel of sixty cancer cell lines; test: NCI one-dose SRB assay, whole panel; type: cell-based; details: Homo sapiens, mean over the panel, 1.00E-5 Molar, read-out: Mean Growth Percent
Protocol: as §1, §2

BT-549 = test: NCI one-dose SRB assay; type: cell-based, human; details: BT-549 (Breast Cancer), 1.00E-5 Molar
Protocol: as §1, §2

SMILES	IC50 [1] [µM]	arrest in G2-M phase compared to control (UO-31 cells [2]) [fold]	increase in percentage of cells at Sub-G1 compared to control (UO-31 cells [2]) [fold]	activity at 10 µM (UO-31) [%]	late apoptotic cells (UR) (UO-31 cells [3]) [%]	early apoptotic cells (LR) (UO-31 cells [3]) [%]	activity at 10 µM [4] [%]	melting point [°C]	Growth Percent (BT-549) [%]	inhibition at 10 µM (UO-31; UO-31, one dose 10^−5 M, read-out: percentage growth inhibition (GI%)) [%]	total increase in annexin V-FITC positive apoptotic cells (UR + LR) compared with control (UO-31 cells [3]; UO-31) [fold]
NS(=O)(=O)c1ccc(NC(=O)C(=Cc2ccc(Cl)cc2)NC(=O)c2ccccc2)cc1 [Compound 5a, N-(1-(4-Chlorophenyl)-3-oxo-3-((4-sulfamoylphenyl)amino)prop-1-en-2-yl)benzamide]	6.53 ± 0.38	2.2	14	78.7	22.96	2.64	100	255 to 258	–	–	–
NS(=O)(=O)c1ccc(NC(=O)C(=Cc2ccc(Cl)cc2Cl)NC(=O)c2ccccc2)cc1 [Compound 5b, N-(1-(2,4-Dichlorophenyl)-3-oxo-3-((4-sulfamoylphenyl)amino)prop-1-en-2-yl)benzamide]	16.7 ± 0.92	–	–	75.8	–	–	97	265 to 267	89.13	–	–
NS(=O)(=O)c1ccc(NC(=O)C(=Cc2ccc(Br)cc2)NC(=O)c2ccccc2)cc1 [Compound 5c, N-(1-(4-Bromophenyl)-3-oxo-3-((4-sulfamoylphenyl)amino)prop-1-en-2-yl)benzamide]	–	–	–	77.2	–	–	97.3	210 to 212	–	–	–
Cc1ccc(C=C(NC(=O)c2ccccc2)C(=O)Nc2ccc(S(N)(=O)=O)cc2)cc1 [Compound 5d, N-(3-Oxo-3-((4-sulfamoylphenyl)amino)-1-(p-tolyl)prop-1-en-2-yl)benzamide]	–	–	–	87	–	–	102	255 to 258	105.04	–	–
COc1ccc(C=C(NC(=O)c2ccccc2)C(=O)Nc2ccc(S(N)(=O)=O)cc2)cc1 [Compound 5e, N-(1-(4-Methoxyphenyl)-3-oxo-3-((4-sulfamoylphenyl)amino)prop-1-en-2-yl)benzamide]	–	–	–	86.4	–	–	103	–	–	–	–
COc1ccc(C=C(NC(=O)c2ccccc2)C(=O)Nc2ccc(S(N)(=O)=O)cc2)c(OC)c1 [Compound 5f, N-(1-(2,4-Dimethoxyphenyl)-3-oxo-3-((4-sulfamoylphenyl)amino)prop-1-en-2-yl)benzamide]	–	–	–	82.5	–	–	103	245 to 250	–	–	–
COc1ccc(C=C(NC(=O)c2ccccc2)C(=O)Nc2ccc(S(N)(=O)=O)cc2)cc1OC [Compound 5g, N-(1-(3,4-Dimethoxyphenyl)-3-oxo-3-((4-sulfamoylphenyl)amino)prop-1-en-2-yl)benzamide]	–	–	–	77.9	–	–	103	250 to 253	–	–	–
Cc1ccc(C=C(NC(=O)c2ccccc2)C(=O)Nc2ccc(S(N)(=O)=O)cc2)o1 [Compound 5h, N-(1-(5-Methylfuran-2-yl)-3-oxo-3-((4-sulfamoylphenyl)amino)prop-1-en-2-yl)benzamide]	4.89 ± 0.22	2.5	15.5	65.2	21.85	8.41	94.6	240 to 243	–	35	26.5
